From patent US12351572B2, “Substituted 1,2,4-triazoles as TYK2 inhibitors” (Alumis Inc., priority 2018, dated 2025) come the findings set out here.

Common to all, as to type: in vivo
The nature of series [1]: Pharmacokinetics in C57BL/6 mice. The conditions noted are these: male, mouse, plasma, iv, C0, I.V. (2 mg/kg), read-out: C0 or Cmax. The protocol: (§1) The pharmacokinetics of test compounds were evaluated in male C57BL/6 mice, Sprague Dawley rats, Beagle dogs, and cynomolgus monkeys when administered via oral gavage and IV injection. The animals were fasted overnight before administration. Plasma samples were collected predose and at 0.5, 1, 3, 6, 9, 12, and 24 hours postdose. The samples were analyzed by LC/MS/MS and the concentration of test compound at each timepoint was determined by linear regression. Pharmacokinetic parameters were calculated from the plasma concentrations using Pheonix WinNonlin.

Series [2] in a line: Pharmacokinetics in Sprague Dawley rats. The conditions noted are these: rat, plasma, iv, C0, I.V. (1 mg/kg), read-out: C0 or Cmax. The protocol:
as §1

The nature of series [3]: Pharmacokinetics in cynomolgus monkeys. The note with it: cynomolgus monkey, plasma, iv, C0, I.V. (1 mg/kg), read-out: C0 or Cmax. The protocol: as §1
A short description of series [4]: Pharmacokinetics in Beagle dogs. The conditions noted are these: dog, plasma, iv, C0, I.V. (1 mg/kg), read-out: C0 or Cmax. On the procedure:
as §1

In the case of `[2H]C([2H])([2H])NC(=O)c1nnc(NC(=O)C2CC2)cc1Nc1cccc(-c2ncn(C)n2)c1OC` [control, BMS-986165], the Cmax – broadly, the highest concentration seen after dosing – was 3220 ng/mL in series [1], 1740 ± 276 ng/mL in series [2], 1420 ± 264 ng/mL in series [3] and 559 ± 34 ng/mL in series [4].
